Experimental data from EP0983768A1, “MEDICINAL COMPOSITION FOR PREVENTION OR TREATMENT OF HEPATOPATHY” (Nippon Shinyaku Co., Ltd., priority 1997, dated 1998).
Marks after values point to notes of the source that are not given here.

Legend:
[1] = tested on: concanavalin A-induced hepatic damage in mice; assay: Inhibitory effect on concanavalin A-induced hepatic damage (plasma transaminase activities GOT, GPT); format: in vivo; details: male BALB/c mice; for Inhibition rate (%) p.o. GOT / Inhibition rate (%) i.p. GOT: plasma GOT 24 hours after con A; for Inhibition rate (%) p.o. GPT / Inhibition rate (%) i.p. GPT: plasma GPT 24 hours after con A
Procedure: The hepatic damage inhibitory effect of the adenosine A2 receptor agonist of the invention can be verified by a test using mice as described below. Among the various animal models proposed for the evaluation of hepatic damage inhibitory activity, the disease model used in this test resembles human hepatitis in the mechanism of onset. Using 6-weeks old male BALB/c mice in groups of 17-20, the test drug was administered intraperitoneally or orally. At 30 minutes after intraperitoneal administration of the test drug or 1 hour after oral administration, 0.6 mg of concanavalin A (con A) was administered intravenously to each animal to induce hepatic damage. At 24 hours after administration of con A, plasma transaminase activities [GOT (glutamic-oxaloacetic transaminase), GPT (glutamic-pyruvic transaminase)] were determined. The plasma transaminase activity inhibition rate in each group given a test drug relative to the control group was calculated by means of the following equation. Inhibition rate (%) = [(C-D)/C] × 100 [formula] where C represents the mean value of plasma transaminase activity in the control group and D represents the mean value of plasma transaminase activity in the group given a test drug.

ICR mice = details: 1000 mg/kg orally, 7-8 weeks old; cited from earlier work
[2] = 1 mg/kg p.o. 1 hour before con A
[3] = 0.3 mg/kg i.p. 30 minutes before con A
[4] = 3 mg/kg i.p. 30 minutes before con A
[5] = 3 mg/kg p.o. 1 hour before con A
[6] = 1 mg/kg i.p. 30 minutes before con A

SMILES	Inhibition rate (%) p.o. GOT [1, 2]	Inhibition rate (%) p.o. GPT [1, 2]	Inhibition rate (%) i.p. GOT [1, 3]	Inhibition rate (%) i.p. GPT [1, 3]	Inhibition rate (%) i.p. GOT [1, 4]	Inhibition rate (%) i.p. GPT [1, 4]	Inhibition rate (%) p.o. GOT [1, 5]	Inhibition rate (%) p.o. GPT [1, 5]	death (ICR mice)	Inhibition rate (%) i.p. GOT [1, 6]	Inhibition rate (%) i.p. GPT [1, 6]
Nc1ncnc2c1ncn2[C@@H]1O[C@H](C(=O)NC2CC2)[C@@H](O)[C@H]1O [Compound 4, 1-(6-amino-9H-purin-9-yl)-1-deoxy-N-cyclopropyl-β-D-ribofuranuronamide]	49** %	56** %									
CCCCCCC#Cc1nc(N)c2ncn([C@@H]3O[C@H](CO)[C@@H](O)[C@H]3O)c2n1 [Compound 5, 2-(1-octyn-1-yl)adenosine]			90** %	96** %	91** %	96** %	93** %	97** %	no death was encountered		
Nc1nc(Nc2ccccc2)nc2c1ncn2[C@@H]1O[C@H](CO)[C@@H](O)[C@H]1O [Compound 2, 2-(phenylamino)adenosine]			61** %	65** %						81** %	91** %
CCNC(=O)[C@H]1O[C@@H](n2cnc3c(N)nc(NCCc4ccc(CCC(=O)O)cc4)nc32)[C@H](O)[C@@H]1O [Compound 1, 1-[6-amino-2-[(2-(4-(2-carboxyethyl)phenyl)-ethyl)amino]-9H-purin-9-yl]-1-deoxy-N-ethyl-β-D-ribofuranuronamide]			85** %	88** %	93** %	98** %	64* %	58* %			
COc1cc(OC)cc(C(CNc2ncnc3c2ncn3[C@@H]2O[C@H](CO)[C@@H](O)[C@H]2O)c2ccccc2C)c1 (stereo partly shown) [Compound 3, N^6-[2-(3,5-dimethoxyphenyl)-2-(2-methylphenyl)ethyl]adenosine]			61** %	60** %	83** %	87** %	86** %	88** %			
